Measurements taken from patent US20250230193A1, “CYCLIC COMPOUND HAVING SELECTIVE KRAS INHIBITORY EFFECT ON HRAS AND NRAS” (CHUGAI SEIYAKU KABUSHIKI KAISHA, priority 2022, published 2025).

How the values were obtained:
[1] = molecular target: GDP-bound HRAS wild-type protein (Homo sapiens, UniProt P01112); experiment: Binding to HRAS by surface plasmon resonance (SPR), Single Cycle Kinetics; conditions: SPR; KD ratio class
[2] = test system: human lung cancer strain NCI-H441; experiment: cells; conditions: NCI-H441, 96 h, read-out: NCI-H441 IC50 (nM)
[3] = molecular target: GDP-bound NRAS wild-type protein (Homo sapiens, UniProt P01111); experiment: Binding to NRAS by surface plasmon resonance (SPR), Single Cycle Kinetics; conditions: SPR; KD ratio class
GDP-bound NRAS wild-type protein, sequence (P01111 whole entry): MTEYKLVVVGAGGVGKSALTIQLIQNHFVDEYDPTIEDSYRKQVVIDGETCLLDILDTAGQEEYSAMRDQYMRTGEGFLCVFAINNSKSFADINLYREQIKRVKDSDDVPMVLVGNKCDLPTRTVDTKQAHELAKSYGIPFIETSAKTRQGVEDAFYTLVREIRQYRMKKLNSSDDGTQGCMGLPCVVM

GDP-bound HRAS wild-type protein, sequence (P01112 whole entry): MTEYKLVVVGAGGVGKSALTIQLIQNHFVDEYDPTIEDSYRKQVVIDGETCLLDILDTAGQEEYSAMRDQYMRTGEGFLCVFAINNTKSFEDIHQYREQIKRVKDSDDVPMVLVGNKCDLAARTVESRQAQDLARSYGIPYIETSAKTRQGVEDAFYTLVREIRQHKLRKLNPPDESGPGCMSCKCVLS

CC[C@H](C)[C@@H]1NC(=O)[C@H](CC2CC2)N(C)C(=O)C[C@@H](C(=O)N(C)C)N(C)C(=O)[C@H](C2CCCC2)N(C)C(=O)C2(CCC2)NC(=O)[C@H](CCC(F)F)N(C)C(=O)[C@H](CCc2cc(F)c(C(F)(F)F)c(F)c2)NC(=O)CN(C)C(=O)[C@H](Cc2ccc(C(F)(F)F)cc2)N2CC/C=C\C[C@@H](C2=O)N(C)C(=O)CN(C)C1=O [PP1402]
HRAS/KRAS (ratio of KD value for GDP-bound HRAS wild-type protein to KD value for KRAS) [1]: A (a compound having 10 or more and less than 20 is denoted as A)
IC50 [2]: 82 nM
NRAS/KRAS (ratio of KD value for GDP-bound NRAS wild-type protein to KD value for KRAS) [3]: A (a compound having 10 or more and less than 20 is denoted as A)

CC[C@H](C)[C@@H]1NC(=O)[C@H](CC2CC2)N(C)C(=O)C[C@@H](C(=O)N(C)C)N(C)C(=O)[C@H](C2CCCC2)N(C)C(=O)C2(CCC2)NC(=O)[C@H](CC(F)F)N(C)C(=O)[C@H](CCc2cc(F)c(C(F)(F)F)c(F)c2)NC(=O)CN(C)C(=O)[C@H](Cc2ccc(C(F)(F)F)cc2)N2CC/C=C\C[C@@H](C2=O)N(C)C(=O)CN(C)C1=O [PP1403]
HRAS/KRAS (ratio of KD value for GDP-bound HRAS wild-type protein to KD value for KRAS) [1]: A (a compound having 10 or more and less than 20 is denoted as A)
IC50 [2]: 111 nM
NRAS/KRAS (ratio of KD value for GDP-bound NRAS wild-type protein to KD value for KRAS) [3]: AA (a compound having 20 or more is denoted as AA)

CC[C@H](C)[C@@H]1NC(=O)[C@H](CC2CC2)N(C)C(=O)C[C@@H](C)N(C)C(=O)[C@H](C2CCCC2)N(C)C(=O)C2(CCC2)NC(=O)[C@H](CCC(F)F)N(C)C(=O)[C@H](CCc2cc(F)c(C(F)(F)F)c(F)c2)NC(=O)CN(C)C(=O)[C@H](Cc2ccc(C(F)(F)F)cc2)N2CC/C=C\C[C@@H](C2=O)N(C)C(=O)CN(C)C1=O [PP1404]
HRAS/KRAS (ratio of KD value for GDP-bound HRAS wild-type protein to KD value for KRAS) [1]: A (a compound having 10 or more and less than 20 is denoted as A)
IC50 [2]: 498 nM
NRAS/KRAS (ratio of KD value for GDP-bound NRAS wild-type protein to KD value for KRAS) [3]: A (a compound having 10 or more and less than 20 is denoted as A)

CC[C@H](C)[C@@H]1NC(=O)[C@H](CC2CC2)N(C)C(=O)C[C@@H](C)N(C)C(=O)[C@H](C2CCCC2)N(C)C(=O)C2(CCC2)NC(=O)[C@H](CC(F)F)N(C)C(=O)[C@H](CCc2cc(F)c(C(F)(F)F)c(F)c2)NC(=O)CN(C)C(=O)[C@H](Cc2ccc(C(F)(F)F)cc2)N2CC/C=C\C[C@@H](C2=O)N(C)C(=O)CN(C)C1=O [PP1405]
HRAS/KRAS (ratio of KD value for GDP-bound HRAS wild-type protein to KD value for KRAS) [1]: A (a compound having 10 or more and less than 20 is denoted as A)
IC50 [2]: 466 nM
NRAS/KRAS (ratio of KD value for GDP-bound NRAS wild-type protein to KD value for KRAS) [3]: A (a compound having 10 or more and less than 20 is denoted as A)

CCO[C@@H]1C[C@H]2C(=O)NC3(CCC3)C(=O)N(C)[C@@H](C3CCCC3)C(=O)N(C)[C@H](C(=O)N3CCOCC3)CC(=O)N(C)[C@@H](CC3CC3)C(=O)N[C@@H]([C@@H](C)CC)C(=O)N(C)CC(=O)N(C)[C@H]3C/C=C\CCN(C3=O)[C@@H](Cc3ccc(C)cc3)C(=O)N(C)CC(=O)N[C@@H](CCc3cc(F)c(C(F)(F)F)c(F)c3)C(=O)N2C1 [PP1408]
HRAS/KRAS (ratio of KD value for GDP-bound HRAS wild-type protein to KD value for KRAS) [1]: A (a compound having 10 or more and less than 20 is denoted as A)
IC50 [2]: 37.6 nM
NRAS/KRAS (ratio of KD value for GDP-bound NRAS wild-type protein to KD value for KRAS) [3]: A (a compound having 10 or more and less than 20 is denoted as A)

CCO[C@@H]1C[C@H]2C(=O)NC3(CCC3)C(=O)N(C)[C@@H](C3CCCC3)C(=O)N(C)[C@H](C(=O)N3CCCC3)CC(=O)N(C)[C@@H](CC3CC3)C(=O)N[C@@H]([C@@H](C)CC)C(=O)N(C)CC(=O)N(C)[C@H]3C/C=C\CCN(C3=O)[C@@H](Cc3ccc(C)cc3)C(=O)N(C)CC(=O)N[C@@H](CCc3cc(F)c(C(F)(F)F)c(F)c3)C(=O)N2C1 [PP1409]
HRAS/KRAS (ratio of KD value for GDP-bound HRAS wild-type protein to KD value for KRAS) [1]: A (a compound having 10 or more and less than 20 is denoted as A)
IC50 [2]: 43.5 nM
NRAS/KRAS (ratio of KD value for GDP-bound NRAS wild-type protein to KD value for KRAS) [3]: A (a compound having 10 or more and less than 20 is denoted as A)

CCO[C@@H]1C[C@H]2C(=O)NC3(CCC3)C(=O)N(C)[C@@H](C3CCCC3)C(=O)N(C)[C@H](C)CC(=O)N(C)[C@@H](CC3CC3)C(=O)N[C@@H]([C@@H](C)CC)C(=O)N(C)CC(=O)N(C)[C@H]3C/C=C\CCN(C3=O)[C@@H](Cc3ccc(C)cc3)C(=O)N(C)CC(=O)N[C@@H](CCc3cc(F)c(C(F)(F)F)c(F)c3)C(=O)N2C1 [PP1410]
HRAS/KRAS (ratio of KD value for GDP-bound HRAS wild-type protein to KD value for KRAS) [1]: B (a compound having 3 or more and less than 10 is denoted as B)
IC50 [2]: 51 nM
NRAS/KRAS (ratio of KD value for GDP-bound NRAS wild-type protein to KD value for KRAS) [3]: B (a compound having 3 or more and less than 10 is denoted as B)

CCO[C@@H]1C[C@H]2C(=O)NC3(CCC3)C(=O)N(C)[C@@H](C3CCCC3)C(=O)N(C)[C@H](C(=O)N3CCCC3)CC(=O)N(C)[C@@H](CC3CCCC3)C(=O)N[C@@H]([C@@H](C)CC)C(=O)N(C)CC(=O)N(C)[C@H]3C/C=C\CCN(C3=O)[C@@H](Cc3ccc(C)cc3)C(=O)N(C)CC(=O)N[C@@H](CCc3cc(F)c(C(F)(F)F)c(F)c3)C(=O)N2C1 [PP1412]
HRAS/KRAS (ratio of KD value for GDP-bound HRAS wild-type protein to KD value for KRAS) [1]: A (a compound having 10 or more and less than 20 is denoted as A)
IC50 [2]: 23 nM
NRAS/KRAS (ratio of KD value for GDP-bound NRAS wild-type protein to KD value for KRAS) [3]: A (a compound having 10 or more and less than 20 is denoted as A)

CCO[C@@H]1C[C@H]2C(=O)NC3(CCC3)C(=O)N(C)[C@@H](C3CCCC3)C(=O)N(C)[C@H](C)CC(=O)N(C)[C@@H](CC3CCCC3)C(=O)N[C@@H]([C@@H](C)CC)C(=O)N(C)CC(=O)N(C)[C@H]3C/C=C\CCN(C3=O)[C@@H](Cc3ccc(C)cc3)C(=O)N(C)CC(=O)N[C@@H](CCc3cc(F)c(C(F)(F)F)c(F)c3)C(=O)N2C1 [PP1413]
HRAS/KRAS (ratio of KD value for GDP-bound HRAS wild-type protein to KD value for KRAS) [1]: B (a compound having 3 or more and less than 10 is denoted as B)
IC50 [2]: 62.5 nM
NRAS/KRAS (ratio of KD value for GDP-bound NRAS wild-type protein to KD value for KRAS) [3]: B (a compound having 3 or more and less than 10 is denoted as B)

CCO[C@@H]1C[C@H]2C(=O)NC3(CCC3)C(=O)N(C)[C@@H](C3CCCC3)C(=O)N(C)[C@H](C(=O)N3CCOCC3)CC(=O)N(C)[C@@H](CC(C)C)C(=O)N[C@@H]([C@@H](C)CC)C(=O)N(C)CC(=O)N(C)[C@H]3C/C=C\CCN(C3=O)[C@@H](Cc3ccc(C)cc3)C(=O)N(C)CC(=O)N[C@@H](CCc3cc(F)c(C(F)(F)F)c(F)c3)C(=O)N2C1 [PP1415]
HRAS/KRAS (ratio of KD value for GDP-bound HRAS wild-type protein to KD value for KRAS) [1]: A (a compound having 10 or more and less than 20 is denoted as A)
IC50 [2]: 9.5 nM
NRAS/KRAS (ratio of KD value for GDP-bound NRAS wild-type protein to KD value for KRAS) [3]: A (a compound having 10 or more and less than 20 is denoted as A)

CCO[C@@H]1C[C@H]2C(=O)NC3(CCC3)C(=O)N(C)[C@@H](C3CCCC3)C(=O)N(C)[C@H](C(=O)N3CCCC3)CC(=O)N(C)[C@@H](CC(C)C)C(=O)N[C@@H]([C@@H](C)CC)C(=O)N(C)CC(=O)N(C)[C@H]3C/C=C\CCN(C3=O)[C@@H](Cc3ccc(C)cc3)C(=O)N(C)CC(=O)N[C@@H](CCc3cc(F)c(C(F)(F)F)c(F)c3)C(=O)N2C1 [PP1416]
HRAS/KRAS (ratio of KD value for GDP-bound HRAS wild-type protein to KD value for KRAS) [1]: A (a compound having 10 or more and less than 20 is denoted as A)
IC50 [2]: 3.8 nM
NRAS/KRAS (ratio of KD value for GDP-bound NRAS wild-type protein to KD value for KRAS) [3]: A (a compound having 10 or more and less than 20 is denoted as A)
